Source: patent US20070249725A1, “Pharmaceutical formulations of sympathetic antagonist for the treatment of chronic muscle pain” (priority 2006, published 2007)
Where a name gives a salt, the structure may show the parent alone.

Assay: Adverse events in subjects treated by trigger point injection (Example 1)
Assay type: in vivo, human
Protocol: A total of 326 male and female subjects, approximately 15 to 85 years old with pain of 4-72 month duration were treated with various doses of phenoxybenzamine. If a potential subject had pain that was clearly muscular and clearly not due to arthritis, nerve root compression or other extramuscular cause, the subject was considered a candidate for phenoxybenzamine hydrochloride injection. Trigger points were identified by palpation. A monopolar EMG needle was then inserted into the trigger point. Another monopolar EMG needle was inserted into a nearby nontender fibers of the same muscle. […] The treatment was repeated in up to 10-12 trigger points per treatment session. Subjects could return for up to 6 treatment sessions, depending on the extent of their pain. The initial treatment was with a dose of 25 mg of phenoxybenzamine hydrochloride in an injection volume of 2 ml. […] For 318 subjects, data were available for analysis for the doses of phenoxybenzamine hydrochloride used, efficacy and incidence of serious adverse events.
The frequencies of other adverse events occurring in the first 199 subjects treated, including the first 87 subjects treated with the 3 mg dose, are given in the table below. Results with an additional 131 subjects treated with the 3 mg dose have been similar.

[1] = 3 mg, multiple injections, N 87
[2] = 10-12.5 mg, multiple injections, N 89
[3] = 10-25 mg, single injection, N 23

CC(COc1ccccc1)N(CCCl)Cc1ccccc1 (stereo not drawn) [Phenoxybenzamine Hydrochloride, phenoxybenzamine hydrochloride]
frequencies of adverse events in additional 131 subjects compared with Table 3 (3 mg dose): similar | Bruising at injection site, % of subjects [1]: (1%) | Bruising at injection site, number of subjects [1]: 1 | Burning, % of subjects [1]: (0%) | Cold sensation, % of subjects [1]: (0%) | Diaphoresis, % of subjects [1]: (0%) | Diarrhea, % of subjects [1]: (0%) | Dizziness, % of subjects [1]: (3%) | Dizziness, number of subjects [1]: 3 | Dry mouth, % of subjects [1]: (0%) | Dysphagia, % of subjects [1]: (0%) | Dyspnea, % of subjects [1]: (1%) | Dyspnea, number of subjects [1]: 1 | Epistaxis, % of subjects [1]: (0%) | Fatigue, % of subjects [1]: (3%) | Fatigue, number of subjects [1]: 3 | Fever, % of subjects [1]: (0%) | Flu syndrome, % of subjects [1]: (1%) | Flu syndrome, number of subjects [1]: 1 | Hair disorder, % of subjects [1]: (1%) | Hair disorder, number of subjects [1]: 1 | Headache, % of subjects [1]: (3%) | Headache, number of subjects [1]: 3 | Hypesthesia, % of subjects [1]: (0%) | Injection site drainage, % of subjects [1]: (0%) | Injection site soreness, % of subjects [1]: (21%) | Injection site soreness, number of subjects [1]: 18 | Injection site swelling, % of subjects [1]: 23% | Injection site swelling, number of subjects [1]: 20 | Lethargy, % of subjects [1]: (1%) | Lethargy, number of subjects [1]: 1 | Lightheadedness, % of subjects [1]: (0%) | Nasal disorder, % of subjects [1]: (0%) | Nausea, % of subjects [1]: (2%) | Nausea, number of subjects [1]: 2 | Pain, % of subjects [1]: (5%) | Pain, number of subjects [1]: 4 | Palpitations, % of subjects [1]: (0%) | Paresthesia, % of subjects [1]: (0%) | Pharyngitis, % of subjects [1]: (0%) | Pruritis, % of subjects [1]: (0%) | Rash, % of subjects [1]: 0% | Stiffness, % of subjects [1]: (1%) | Stiffness, number of subjects [1]: 1 | Swelling, % of subjects [1]: (0%) | Syncope, % of subjects [1]: (0%) | Tachycardia, % of subjects [1]: (0%) | Taste disorder, % of subjects [1]: (1%) | Taste disorder, number of subjects [1]: 1 | Tremor, % of subjects [1]: (1%) | Tremor, number of subjects [1]: 1 | Vomiting, % of subjects [1]: (0%) | Bruising at injection site, % of subjects [2]: (11%) | Bruising at injection site, number of subjects [2]: 10 | Burning, % of subjects [2]: (3%) | Burning, number of subjects [2]: 3 | Cold sensation, % of subjects [2]: (1%) | Cold sensation, number of subjects [2]: 1 | Diaphoresis, % of subjects [2]: (1%) | Diaphoresis, number of subjects [2]: 1 | Diarrhea, % of subjects [2]: (2%) | Diarrhea, number of subjects [2]: 2 | Dizziness, % of subjects [2]: (20%) | Dizziness, number of subjects [2]: 18 | Dry mouth, % of subjects [2]: (1%) | Dry mouth, number of subjects [2]: 1 | Dysphagia, % of subjects [2]: (0%) | Dyspnea, % of subjects [2]: (3%) | Dyspnea, number of subjects [2]: 3 | Epistaxis, % of subjects [2]: (0%) | Fatigue, % of subjects [2]: (4%) | Fatigue, number of subjects [2]: 4 | Fever, % of subjects [2]: (1%) | Fever, number of subjects [2]: 1 | Flu syndrome, % of subjects [2]: (1%) | Flu syndrome, number of subjects [2]: 1 | Hair disorder, % of subjects [2]: (0%) | Headache, % of subjects [2]: (10%) | Headache, number of subjects [2]: 9 | Hypesthesia, % of subjects [2]: (4%) | Hypesthesia, number of subjects [2]: 4 | Injection site drainage, % of subjects [2]: (2%) | Injection site drainage, number of subjects [2]: 2 | Injection site soreness, % of subjects [2]: (37%) | Injection site soreness, number of subjects [2]: 33 | Injection site swelling, % of subjects [2]: 45% | Injection site swelling, number of subjects [2]: 40 | Lethargy, % of subjects [2]: (0%) | Lightheadedness, % of subjects [2]: (13%) | Lightheadedness, number of subjects [2]: 12 | Nasal disorder, % of subjects [2]: (2%) | Nasal disorder, number of subjects [2]: 2 | Nausea, % of subjects [2]: (18%) | Nausea, number of subjects [2]: 16 | Pain, % of subjects [2]: (0%) | Palpitations, % of subjects [2]: (1%) | Palpitations, number of subjects [2]: 1 | Paresthesia, % of subjects [2]: (3%) | Paresthesia, number of subjects [2]: 3 | Pharyngitis, % of subjects [2]: (1%) | Pharyngitis, number of subjects [2]: 1 | Pruritis, % of subjects [2]: (1%) | Pruritis, number of subjects [2]: 1 | Rash, % of subjects [2]: 2% | Rash, number of subjects [2]: 2 | Stiffness, % of subjects [2]: (2%) | Stiffness, number of subjects [2]: 2 | Swelling, % of subjects [2]: (2%) | Swelling, number of subjects [2]: 2 | Syncope, % of subjects [2]: (7%) | Syncope, number of subjects [2]: 6 | Tachycardia, % of subjects [2]: (0%) | Taste disorder, % of subjects [2]: (2%) | Taste disorder, number of subjects [2]: 2 | Tremor, % of subjects [2]: (1%) | Tremor, number of subjects [2]: 1 | Vomiting, % of subjects [2]: (8%) | Vomiting, number of subjects [2]: 7 | Bruising at injection site, % of subjects [3]: (0%) | Burning, % of subjects [3]: (4%)
